From patent US8748461B2, “Metalloenzyme inhibitor compounds” (Viamet Pharmaceuticals, Inc., priority 2011, dated 2014)
In brackets after ≈: the same amount, converted by molar mass.

Key:
[1] = test system: Septoria tritici (ATCC 26517); assay: Minimum Inhibitory Concentration (MIC) vs. Septoria tritici; type: cell-based; conditions: Zymoseptoria tritici, ATCC26517, 168 h; 50% reduction in growth of S. tritici; 22° C., seven days; read-out: Septoria Rating (MIC)
Summary of the method: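 Growth inhibition of S. tritici by CLSI-based filamentous-fungus microdilution, 2-fold series 16 to 0.016 μg/mL in RPMI-1640/MOPS with 2% DMSO. Inoculum approximately 5×10^4 cfu/mL; plates incubated 22° C, seven days, dark, unshaken.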

[2] = test system: Puccinia recondita tritici = Puccinia triticina; assay: Fungicidal activity vs. leaf rust on wheat plants; type: in vivo; conditions: 50 ppm spray on wheat (Yuma), inoculated the following day, evaluated 7-9 days later; read-out: Puccinia Rating (% Disease Control @ 50 ppm)
Summary of the method: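 Wheat seedlings were sprayed to wetness with compound at 50 ppm in 10% acetone/Triton X100 water, at about 1500 L/ha. They were inoculated with P. recondita tritici spores the following day and held overnight at high humidity before greenhouse growth. Disease severity was rated 7-9 days later on a rating scale.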

C. albicans = assay: Minimum Inhibitory Concentration (MIC) (C. albicans), CLSI M27-A2; type: cell-based; conditions: Candida albicans; about 50% growth reduction; approximately 48 h at 35±1° C.
Method: A. Minimum Inhibitory Concentration (MIC) (C. albicans) Compounds of the present disclosure were assessed for their ability to inhibit the growth of common strains of fungus, C. albicans using a standardized procedure (CLSI M27-A2). Stock solutions of the test compounds and standards were prepared in DMSO at 1,600 μg/mL (C. albicans). Eleven, serial, one-half dilutions of compounds were prepared in 96-well plates in RPMI+MOPS. The assay concentration ranges were 8-0.001 μg/mL (C. albicans). Cell suspensions of C. albicans were prepared and added to each well at concentrations of approximately 3.7×10^3 colony-forming-units per milliliter (cfu/mL). All testing was in duplicate. The inoculated plates were incubated for approximately 48 h at 35±1° C. At the completion of incubation the wells of each plate were evaluated visually for the presence of fungal growth. […] For QC purposes C. krusei isolate ATCC 6258 (4.0×10^3 cfu/mL) was included in the VOR assay.

Q: How did the MIC [1] turn out when `OC(Cn1cnnn1)(c1ccc(F)cc1F)C(F)(F)c1ccc(Oc2ccccc2)cn1` (centres unmarked) [Compound 11, 2-(2,4-Difluorophenyl)-1,1-difluoro-1-(5-phenoxypyridin-2-yl)-3-(1H-tetrazol-1-yl)propan-2-ol] was run?
A: ≤ 0.5 µg/mL

Q: What about the pest or weed control at 50 ppm [2] of the same compound?
A: 80 to 100%

Q: `OC(Cn1cnnn1)(c1ccc(F)cc1F)C(F)(F)c1ccc(OCc2ccnc(Cl)c2)cn1` (centres unmarked) [Compound 117, 1-(5-((2-chloropyridin-4-yl)methoxy)pyridin-2-yl)-2-(2,4-difluorophenyl)-1,1-difluoro-3-(1H-tetrazol-1-yl)propan-2-ol] was tested. Which MIC [1] did it give?
A: ≤ 0.5 µg/mL

Q: And the pest or weed control at 50 ppm [2]?
A: 80 to 100%

Q: Which results are given for `OC(Cn1cnnn1)(c1ccc(F)cc1F)C(F)(F)c1ccc(Oc2ncccn2)cn1` (centres unmarked) [Compound 97, 2-(2,4-difluorophenyl)-1,1-difluoro-1-(5-(pyrimidin-2-yloxy)pyridin-2-yl)-3-(1H-tetrazol-1-yl)propan-2-ol]?
A: MIC [1]: 0.5 to 1.5 µg/mL (≈ 1.12 to 3.35 µM); pest or weed control at 50 ppm [2]: 80 to 100%

Q: Which results are given for `N#Cc1cc(Oc2ccc(C(F)(F)C(O)(Cn3cnnn3)c3ccc(F)cc3F)nc2)ccn1` (centres unmarked) [Compound 96, 4-((6-(2-(2,4-difluorophenyl)-1,1-difluoro-2-hydroxy-3-(1H-tetrazol-1-yl)propyl)pyridin-3-yl)oxy)picolinonitrile]?
A: MIC [1]: 1.5 to 4 µg/mL (≈ 3.18 to 8.49 µM); pest or weed control at 50 ppm [2]: 60 to 79%

Q: Which MIC [1] does the source give for `OC(Cn1cnnn1)(c1ccc(F)cc1F)C(F)(F)c1ccc(OCc2ccc(F)cc2F)cn1` (centres unmarked) [Compound 2, 1-(5-(2,4-Difluorobenzyloxy)pyridin-2-yl)-2-(2,4-difluorophenyl)-1,1-difluoro-3-(1H-tetrazol-1-yl)propan-2-ol] here?
A: ≤ 0.5 µg/mL

Q: What about the pest or weed control at 50 ppm [2] of the same compound?
A: 80 to 100%

Q: Which MIC [1] does the source give for `OC(Cn1cnnn1)(c1ccc(F)cc1F)C(F)(F)c1ccc(Oc2ccc(C(F)(F)F)cn2)cn1` (centres unmarked) [Compound 94, 2-(2,4-difluorophenyl)-1,1-difluoro-3-(1H-tetrazol-1-yl)-1-(5-((5-(trifluoromethyl)pyridin-2-yl)oxy)pyridin-2-yl)propan-2-ol] here?
A: ≤ 0.5 µg/mL

Q: What about the pest or weed control at 50 ppm [2] of the same compound?
A: 80 to 100%

Q: With `OC(Cn1cncn1)(c1ccc(F)cc1F)C(F)(F)c1ccc(OCc2cccc(F)c2F)cn1` (centres unmarked) [Compound 45, 1-(5-((2,3-Difluorobenzyl)oxy)pyridin-2-yl)-2-(2,4-difluorophenyl)-1,1-difluoro-3-(1H-1,2,4-triazol-1-yl)propan-2-ol] as the compound, how does the MIC [1] read?
A: ≤ 0.5 µg/mL

Q: What about the pest or weed control at 50 ppm [2] of the same compound?
A: 80 to 100%

Q: Which MIC (C. albicans) does the source give for `OC(Cn1cncn1)(Cn1cncn1)c1ccc(F)cc1F` [Fluconazole, reference compound] here?
A: 0.5 µg/mL (≈ 1.63 µM)

Q: What does the source list for `OC(Cn1cnnn1)(c1ccc(F)cc1F)C(F)(F)c1ccc(Oc2cccc(Cl)c2)cn1` (centres unmarked) [Compound 84, 1-(5-(3-Chlorophenoxy)pyridin-2-yl)-2-(2,4-difluorophenyl)-1,1-difluoro-3-(1H-tetrazol-1-yl)propan-2-ol]?
A: MIC [1]: ≤ 0.5 µg/mL; pest or weed control at 50 ppm [2]: 80 to 100%

Q: Which results are given for `OC(Cn1cnnn1)(c1ccc(F)cc1F)C(F)(F)c1ccc(OCc2ccc(C(F)(F)F)nc2)cn1` (centres unmarked) [Compound 115, 2-(2,4-difluorophenyl)-1,1-difluoro-3-(1H-tetrazol-1-yl)-1-(5-((6-(trifluoromethyl)pyridin-3-yl)methoxy)pyridin-2-yl)propan-2-ol]?
A: MIC [1]: ≤ 0.5 µg/mL; pest or weed control at 50 ppm [2]: 80 to 100%

Q: Which results are given for `OC(Cn1cnnn1)(c1ccc(F)cc1F)C(F)(F)c1ccc(Oc2ccc(Br)cn2)cn1` (centres unmarked) [Compound 106, 1-(5-((5-bromopyridin-2-yl)oxy)pyridin-2-yl)-2-(2,4-difluorophenyl)-1,1-difluoro-3-(1H-tetrazol-1-yl)propan-2-ol]?
A: MIC [1]: ≤ 0.5 µg/mL; pest or weed control at 50 ppm [2]: 80 to 100%

Q: Which results are given for `COc1cccc(COc2ccc(C(F)(F)C(O)(Cn3cnnn3)c3ccc(F)cc3F)nc2)c1` (centres unmarked) [Compound 34, 2-(2,4-Difluorophenyl)-1,1-difluoro-1-(5-((3-methoxybenzyl)oxy)pyridin-2-yl)-3-(1H-tetrazol-1-yl)propan-2-ol]?
A: MIC [1]: ≤ 0.5 µg/mL; pest or weed control at 50 ppm [2]: 80 to 100%

Q: Which MIC [1] does the source give for `N#Cc1cccc(COc2ccc(C(F)(F)C(O)(Cn3cnnn3)c3ccc(F)cc3F)nc2)c1F` (centres unmarked) [Compound 67, 3-(((6-(2-(2,4-Difluorophenyl)-1,1-difluoro-2-hydroxy-3-(1H-tetrazol-1-yl)propyl)pyridin-3-yl)oxy)methyl)-2-fluorobenzonitrile] here?
A: ≤ 0.5 µg/mL

Q: What about the pest or weed control at 50 ppm [2] of the same compound?
A: 80 to 100%

Q: What does the source list for `OC(Cn1cnnn1)(c1ccc(F)cc1F)C(F)(F)c1ccc(Oc2ncc(Br)cn2)cn1` (centres unmarked) [Compound 99, 1-(5-((5-bromopyrimidin-2-yl)oxy)pyridin-2-yl)-2-(2,4-difluorophenyl)-1,1-difluoro-3-(1H-tetrazol-1-yl)propan-2-ol]?
A: MIC [1]: ≤ 0.5 µg/mL; pest or weed control at 50 ppm [2]: 80 to 100%

Q: How did the MIC [1] turn out when `OC(Cn1cnnn1)(c1ccc(Cl)cc1F)C(F)(F)c1ccc(OCC2CC2)cn1` (centres unmarked) [Compound 54, 2-(4-Chloro-2-fluorophenyl)-1-(5-(cyclopropylmethoxy)pyridin-2-yl)-1,1-difluoro-3-(1H-tetrazol-1-yl)propan-2-ol] was run?
A: ≤ 0.5 µg/mL

Q: What about the pest or weed control at 50 ppm [2] of the same compound?
A: 80 to 100%

Q: Which MIC [1] does the source give for `CC(C)COc1ccc(C(F)(F)C(O)(Cn2cnnn2)c2ccc(Cl)cc2F)nc1` (centres unmarked) [Compound 69, 2-(4-Chloro-2-fluorophenyl)-1,1-difluoro-1-(5-isobutoxypyridin-2-yl)-3-(1H-tetrazol-1-yl)propan-2-ol] here?
A: ≤ 0.5 µg/mL

Q: What about the pest or weed control at 50 ppm [2] of the same compound?
A: 80 to 100%

Q: With `OC(Cn1cnnn1)(c1ccc(F)cc1F)C(F)(F)c1ccc(OCC(F)(F)c2ccc(OC(F)F)cc2)cn1` (centres unmarked) [Compound 120, 1-(5-(2-(4-(difluoromethoxy)phenyl)-2,2-difluoroethoxy)pyridin-2-yl)-2-(2,4-difluorophenyl)-1,1-difluoro-3-(1H-tetrazol-1-yl)propan-2-ol] as the compound, how does the MIC [1] read?
A: ≤ 0.5 µg/mL

Q: And the pest or weed control at 50 ppm [2]?
A: 80 to 100%

Q: Which results are given for `OC(Cn1cnnn1)(c1ccc(F)cc1F)C(F)(F)c1ccc(OCc2ccc(Cl)cn2)cn1` (centres unmarked) [Compound 113, 1-(5-((5-chloropyridin-2-yl)methoxy)pyridin-2-yl)-2-(2,4-difluorophenyl)-1,1-difluoro-3-(1H-tetrazol-1-yl)propan-2-ol]?
A: MIC [1]: ≤ 0.5 µg/mL; pest or weed control at 50 ppm [2]: 80 to 100%

Q: `OC(Cn1cnnn1)(c1ccc(F)cc1F)C(F)(F)c1ccc(OCC(F)c2ccccc2)cn1` (centres unmarked) [Compound 123, 2-(2,4-difluorophenyl)-1,1-difluoro-1-(5-(2-fluoro-2-phenylethoxy)pyridin-2-yl)-3-(1H-tetrazol-1-yl)propan-2-ol] was tested. Which MIC [1] did it give?
A: ≤ 0.5 µg/mL

Q: What about the pest or weed control at 50 ppm [2] of the same compound?
A: 80 to 100%

Q: How did the MIC [1] turn out when `N#Cc1ccc(COc2ccc(C(F)(F)C(O)(Cn3cnnn3)c3ccc(F)cc3F)nc2)s1` (centres unmarked) [Compound 73, 5-(((6-(2-(2,4-Difluorophenyl)-1,1-difluoro-2-hydroxy-3-(1H-tetrazol-1-yl)propyl)pyridin-3-yl)oxy)methyl)thiophene-2-carbonitrile] was run?
A: ≤ 0.5 µg/mL

Q: What about the pest or weed control at 50 ppm [2] of the same compound?
A: 80 to 100%

Q: With `OC(Cn1cnnn1)(c1ccc(F)cc1F)C(F)(F)c1ccc(OCc2ccccn2)cn1` (centres unmarked) [Compound 37, 2-(2,4-Difluorophenyl)-1,1-difluoro-1-(5-(pyridin-2-ylmethoxy)pyridin-2-yl)-3-(1H-tetrazol-1-yl)propan-2-ol] as the compound, how does the MIC [1] read?
A: 0.5 to 1.5 µg/mL (≈ 1.09 to 3.26 µM)

Q: And the pest or weed control at 50 ppm [2]?
A: 80 to 100%

Q: Which MIC (C. albicans) does the source give for `C[C@@H](c1ncncc1F)[C@](O)(Cn1cncn1)c1ccc(F)cc1F` [Voriconazole, reference compound] here?
A: 0.016 µg/mL (≈ 0.0458 µM)

Q: Which MIC [1] does the source give for `OC(Cn1cnnn1)(c1ccc(F)cc1F)C(F)(F)c1ccc(OCc2ccc(C(F)(F)F)cc2)cn1` (centres unmarked) [Compound 22, 2-(2,4-Difluorophenyl)-1,1-difluoro-3-(1H-tetrazol-1-yl)-1-(5-((4-(trifluoromethyl)benzyl)oxy)pyridin-2-yl)propan-2-ol] here?
A: ≤ 0.5 µg/mL

Q: And the pest or weed control at 50 ppm [2]?
A: 80 to 100%

Q: Which results are given for `OC(Cn1cnnn1)(c1ccc(F)cc1F)C(F)(F)c1ccc(OCc2ccncc2)cn1` (centres unmarked) [Compound 118, 2-(2,4-difluorophenyl)-1,1-difluoro-1-(5-(pyridin-4-ylmethoxy)pyridin-2-yl)-3-(1H-tetrazol-1-yl)propan-2-ol]?
A: MIC [1]: ≤ 0.5 µg/mL; pest or weed control at 50 ppm [2]: < 40%

Q: With `CC(C)COc1ccc(C(F)(F)C(O)(Cn2cnnn2)c2ccc(F)cc2F)nc1` (centres unmarked) [Compound 43, 2-(2,4-Difluorophenyl)-1,1-difluoro-1-(5-isobutoxypyridin-2-yl)-3-(1H-tetrazol-1-yl)propan-2-ol] as the compound, how does the MIC [1] read?
A: ≤ 0.5 µg/mL

Q: And the pest or weed control at 50 ppm [2]?
A: 80 to 100%

Q: For `N#Cc1ccc(Oc2ccc(C(F)(F)C(O)(Cn3cnnn3)c3ccc(F)cc3F)nc2)nc1` (centres unmarked) [Compound 93, 6-((6-(2-(2,4-difluorophenyl)-1,1-difluoro-2-hydroxy-3-(1H-tetrazol-1-yl)propyl)pyridin-3-yl)oxy)nicotinonitrile], which MIC [1] is on record?
A: ≤ 0.5 µg/mL

Q: What about the pest or weed control at 50 ppm [2] of the same compound?
A: 80 to 100%
